Tests used:
Type in all cases: in vivo, rats
[1] = organ weight after Taxol administration; conditions: day 15, contrast group (Taxol) vs control group, experimental group even lower than control group
Excerpt: Cancer pain is a kind of pain caused by cancer, which is most common symptoms and most feared symptoms for patients. If the pain is not controlled properly, the life quality of patients would be affected severely. To understand the effect of presented pharmaceutical composition on cancer pain, the experiment was following: 6 to 7 week-old female rats (20-24 grams, ICR) were divided into control group, contrast group and experimental group. In control group, rats were not gave any medication. In contrast group and experimental group, rats were administered Taxol® (20 mg/kg) from day 0 to day 5 to induce the pain. Besides, the experimental group were also treated with presented pharmaceutical composition for 7 days before administered Taxol®, and continuously treated for 14 days after administered Taxol®. Therefore, the total days of presented pharmaceutical composition administered in experimental group is 21 days. The administered method is twice daily, and the dosage was 0.5-1.67 uL/mouse. On day 3, 7 and 14 during the drug administration, the tail flick latency (Tail-Flick Unit 37360) was conducted. The tail flick latency is used to evaluate the degree of change of pain threshold by heating the tail of rat through infrared.
Organ hypertrophy is common side effect induced by chemotherapy drugs. To understand the impact of the presented pharmaceutical compositions on organs, the female rats of example 5 were sacrificed on day 15. The heart, liver, spleen and kidney acquired from rats were weighted respectively.

[2] = tail flick latency after Taxol-induced pain; conditions: Taxol 20 mg/kg day 0 to day 5; day 3, day 7 and day 14; composition 21 days twice daily, vs contrast group
Protocol: To understand the effect of presented pharmaceutical composition on cancer pain, the experiment was following: 6 to 7 week-old female rats (20-24 grams, ICR) were divided into control group, contrast group and experimental group. […] In contrast group and experimental group, rats were administered Taxol® (20 mg/kg) from day 0 to day 5 to induce the pain. Besides, the experimental group were also treated with presented pharmaceutical composition for 7 days before administered Taxol®, and continuously treated for 14 days after administered Taxol®. Therefore, the total days of presented pharmaceutical composition administered in experimental group is 21 days. The administered method is twice daily, and the dosage was 0.5-1.67 uL/mouse. On day 3, 7 and 14 during the drug administration, the tail flick latency (Tail-Flick Unit 37360) was conducted. The tail flick latency is used to evaluate the degree of change of pain threshold by heating the tail of rat through infrared.

[3] = test system: white blood cells; conditions: for the numbers of white blood cell, Day 0 before chemotherapy: day 0 before cyclophosphamide, experimental group pretreated 5 days with composition, disease and contrast groups not yet treated; for the numbers of white blood cell, Day 4 after chemotherapy: day 4 after cyclophosphamide, G-CSF on day 2 to day 4, composition twice daily 0.5-1.67 uL/mouse; for the numbers of white blood cell, Day 7 after chemotherapy: day 7 after cyclophosphamide; for the numbers of white blood cell, Day 10 after chemotherapy: day 10 after cyclophosphamide; for numbers of white blood cell (in words): disease group vs normal group, contrast group on day 7 and day 10, experimental group vs contrast group after chemotherapy
Excerpt: Furthermore, a common side effect of chemotherapy is a drop in the number of white blood cells, which leads to an increased risk of getting an infection. Currently, granulocyte colony stimulating factor (G-CSF) treatment can make white blood cell levels go up faster. However, patients may have one or more side effects of using G-CSF. To understand the effect of present pharmaceutical composition on white blood cells, cyclophosphamide-induced leukopenia experiment execute as follows: 6 to 7 week-old female rats (20-24 grams, ICR) were divided into normal group, disease group, contrast group and experimental group. In normal group, rats were not gave any medication. In disease, contrast and experimental group, rats were administered cyclophosphamide on day 0 to induce leukopenia. Besides, in contrast group, rats were also administered G-CSF on day 2 to day 4. In experimental group, rats were treated with presented pharmaceutical composition for 5 days before administered cyclophosphamide, and continuously treated for 10 days after administered cyclophosphamid. Therefore, the total days of presented pharmaceutical composition administered in experimental group is 15 days. The administered method of presented pharmaceutical composition is twice daily, and the dosage was 0.5-1.67 uL/mouse. The rats in each group were phlebotomized on day 0 before chemotherapy, and on day 4, day 7 and day 10 after chemotherapy.

Molecule: CC(=O)O[C@H]1C(=O)[C@@]2(C)[C@H]([C@H](OC(=O)c3ccccc3)[C@]3(O)C[C@H](OC(=O)[C@H](O)[C@@H](NC(=O)c4ccccc4)c4ccccc4)C(C)=C1C3(C)C)[C@]1(OC(C)=O)CO[C@@H]1C[C@@H]2O [Taxol®]
- heart weight ([1]; FIG. 8A): significantly heavier
- liver weight ([1]; FIG. 8B): significantly heavier
- spleen weight ([1]; FIG. 8C): significantly heavier
- kidney weight ([1]; FIG. 8D): significantly heavier
- tail flick latency [2]: lower

Molecule: O=P1(N(CCCl)CCCl)NCCCO1 (stereo not drawn) [cyclophosphamide]
- the numbers of white blood cell, Day 0 before chemotherapy [3]: 887
- the numbers of white blood cell, Day 4 after chemotherapy [3]: 56
- the numbers of white blood cell, Day 7 after chemotherapy [3]: 333
- the numbers of white blood cell, Day 10 after chemotherapy [3]: 772
- numbers of white blood cell (in words) [3]: extremely reduced

B1: G-CSF: granulocyte colony stimulating factor, given day 2 to day 4 after cyclophosphamide; contrast group of leukopenia experiment (protein, UniProt P09919 31-207, looked up)
Granulocyte …: TPLGPASSLPQSFLLKCLEQVRKIQGDGAALQEKLVSECATYKLCHPEELVLLGHSLGIPWAPLSSCPSQALQLAGCLSQLHSGLFLYQGLLQALEGISPELGPTLDTLQLDVADFATTIWQQMEELGMAPALQPTQGAMPAFASAFQRRAGGVLVASHLQSFLEVSYRVLRHLAQP
- the numbers of white blood cell, Day 0 before chemotherapy [3]: 843
- the numbers of white blood cell, Day 4 after chemotherapy [3]: 51
- the numbers of white blood cell, Day 7 after chemotherapy [3]: 528
- the numbers of white blood cell, Day 10 after chemotherapy [3]: 768
- numbers of white blood cell (in words) [3]: increase
